Test results: ChEMBL document CHEMBL2406956, “Discovery and optimisation of 1-hydroxyimino-3,3-diphenylpropanes, a new class of orally active GPBAR1 (TGR5) agonists” (Bioorg Med Chem Lett, 2013)

Assays:
[1] = 1-octanol-aqueous buffer distribution coefficient, log D of the compound at 0.5 mM at pH 7.4 after 2 hrs by shake flask method; format: physicochemical
[2] = Cmax in C57Bl/6 DIO mouse at 30 mg/kg, po; format: ADME, organism-based; parameters: dose 30 mg/kg, route oral; conditions: in vivo
[3] = Oral bioavailability in C57Bl/6 DIO mouse at 30 mg/kg; format: ADME, organism-based; conditions: in vivo
[4] = Half life in C57Bl/6 DIO mouse at 1 mg/kg, iv; format: ADME, organism-based; parameters: dose 1 mg/kg, route intravenous; conditions: in vivo
[5] = Volume of distribution at steady state in C57Bl/6 DIO mouse at 1 mg/kg, iv; format: ADME, organism-based; parameters: dose 1 mg/kg, route intravenous; conditions: in vivo, read-out: Vdss
[6] = Clearance in C57Bl/6 DIO mouse at 1 mg/kg, iv; format: ADME, organism-based; parameters: dose 1 mg/kg, route intravenous; conditions: in vivo
[7] = Oral bioavailability in C57Bl/6 DIO mouse at 49 mg/kg; format: ADME, organism-based; conditions: in vivo
[8] = Cmax in C57Bl/6 DIO mouse at 22 mg/kg, po; format: ADME, organism-based; parameters: dose 22 mg/kg, route oral; conditions: in vivo
[9] = Oral bioavailability in C57Bl/6 DIO mouse at 22 mg/kg; format: ADME, organism-based; conditions: in vivo
[10] = Stability of the compound in aqueous solution assessed as recovery at pH 1 to 10 after 2 hrs; format: physicochemical; conditions: read-out: Drug recovery
[11] = tested on: Plasma; assay: Plasma concentration in C57Bl/6 DIO mouse at 50 to 100 mg/kg, po; format: ADME, organism-based; parameters: dose 50-100 mg/kg, route oral; conditions: in vivo
[12] = Oral bioavailability in C57Bl/6 DIO mouse at 23 mg/kg; format: ADME, organism-based; conditions: in vivo

Row | SMILES | logD at 2 h, 500 µM [1] | half-life [4] | Vd [5] | clearance [6] | further results
1 | Cc1cc(/C(C[C@H](c2ccc(N3CCC(C(=O)O)CC3)cc2)c2ccccc2C)=N/O)ccn1 | 1.5 | 1.7 h | 0.4 L/kg | 5 mL/min/kg | Cmax [2]: 41000 ng/mL; bioavailability [3]: 100%
2 | Cc1ccccc1[C@H](C/C(=N\O)c1ccc(=O)n(C)c1)c1ccc(S(C)(=O)=O)cc1 | 1.7 | 2.2 h | 3.3 L/kg | 67 mL/min/kg | Cmax [8]: 870 ng/mL; bioavailability [9]: 29%
3 | Cc1ccccc1[C@@H](C/C(=N\O)c1ccc(=O)n(C)c1)c1ccc(S(C)(=O)=O)cc1 | 1.9 | – | – | – | –
4 | CN(C)c1ccc(C(C/C(=N\O)c2ccncc2)c2ccccc2)cc1 (stereo not given) | 3.4 | – | – | – | remaining at 2 h [10]: > 90%

Continued, in another order:

Row | logD at 2 h, 500 µM [1] | half-life [4] | Vd [5] | clearance [6] | SMILES | further results
5 | 2.7 | – | – | – | Cc1cc(/C(C[C@@H](c2ccc(-c3ccc(C(=O)O)cc3)cc2)c2ccccc2C)=N/O)ccn1 | –
6 | 1.6 | – | – | – | Cc1cc(/C(C[C@@H](c2ccc(N3CCC(C(=O)O)CC3)cc2)c2ccccc2C)=N/O)ccn1 | –
7 | 1.3 | 0.7 h | 0.5 L/kg | 5 mL/min/kg | Cc1ccccc1[C@H](C/C(=N\O)c1ccc(=O)n(C)c1)c1ccc(-c2ccc(C(=O)O)cc2)cc1 | bioavailability [7]: 67%
8 | 1.5 | – | – | – | Cc1ccccc1[C@@H](C/C(=N\O)c1ccc(=O)n(C)c1)c1ccc(-c2ccc(C(=O)O)cc2)cc1 | –
9 | > 4 | – | – | – | Cc1cc(/C(CC(c2ccc(Br)cc2)c2ccccc2C)=N/O)ccn1 (stereo not given) | –
10 | 2.7 | 0.3 h | 0.5 L/kg | 15 mL/min/kg | Cc1cc(/C(C[C@H](c2ccc(-c3ccc(C(=O)O)cc3)cc2)c2ccccc2C)=N/O)ccn1 | Cp [11]: 31500 ng/mL; bioavailability [12]: 80%
